What was measured:
Assay in all cases: relative viability (nuclei count vs DMSO), 5 days (fraction); higher = more cells survive
NCI-H1563 = tested on: NCI-H1563
Procedure, shortened: (§1)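 For relative viability, nuclei counts in treated wells were divided by those in vehicle wells. Lung cancer cell lines had been pin-tool dosed in 1536-well plates the day after seeding and cultured for 5 days, then fixed and stained in one step (final 0.05% Triton X-100, 1% formaldehyde, 1 ug/ml Hoechst) and imaged at 4×. Doses were one drug alone or a fixed anchor-drug dose plus five library-drug doses (not always all listed) in √10 steps, and values are duplicate-plate medians.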

ABC-1 = tested on: ABC-1
Procedure, shortened: as §1

NCI-H520 = tested on: NCI-H520
Procedure, shortened: as §1

NCI-H1734 = tested on: NCI-H1734
Procedure, shortened: as §1

H3255 = tested on: H3255
Procedure, shortened: as §1

PC-14 = tested on: PC-14
Procedure, shortened: as §1

NCI-H1650 = tested on: NCI-H1650
Procedure, shortened: as §1

EKVX = tested on: EKVX
Procedure, shortened: as §1

RERF-LC-KJ = tested on: RERF-LC-KJ
Procedure, shortened: as §1

LK-2 = tested on: LK-2
Procedure, shortened: as §1

SW 1573 = tested on: SW 1573
Procedure, shortened: as §1

NCI-H1437 = tested on: NCI-H1437
Procedure, shortened: as §1

NCI-H2228 = tested on: NCI-H2228
Procedure, shortened: as §1

NCI-H2405 = tested on: NCI-H2405
Procedure, shortened: as §1

PC-3 [JPC-3] = tested on: PC-3 [JPC-3]
Procedure, shortened: as §1

HCC-15 = tested on: HCC-15
Procedure, shortened: as §1

NCI-H322M = tested on: NCI-H322M
Procedure, shortened: as §1

HCC-827 = tested on: HCC-827
Procedure, shortened: as §1

NCI-H661 = tested on: NCI-H661
Procedure, shortened: as §1

CAL-12T = tested on: CAL-12T
Procedure, shortened: as §1

COR-L23 = tested on: COR-L23
Procedure, shortened: as §1

NCI-H1355 = tested on: NCI-H1355
Procedure, shortened: as §1

Structure (SMILES): O=C(O)c1ccc(-c2c[nH]c3ncc(-c4ccccc4)cc23)cc1C1CCCC1 + CS(=O)(=O)CCNCc1ccc(-c2ccc3ncnc(Nc4ccc(OCc5cccc(F)c5)c(Cl)c4)c3c2)o1 [Lapatinib] (partner 2 µM)
- relative viability (NCI-H1563; first compound 0.04 µM): 1.07
- relative viability (NCI-H1563; first compound 0.1265 µM): 0.939
- relative viability (NCI-H1563; first compound 0.4 µM): 0.933
- relative viability (NCI-H1563; first compound 1.265 µM): 0.968
- relative viability (ABC-1; first compound 0.04 µM): 1.05
- relative viability (ABC-1; first compound 0.1265 µM): 1.08
- relative viability (ABC-1; first compound 0.4 µM): 1.09
- relative viability (ABC-1; first compound 1.265 µM): 1.52
- relative viability (NCI-H520; first compound 0.04 µM): 1.01
- relative viability (NCI-H520; first compound 0.1265 µM): 0.858
- relative viability (NCI-H520; first compound 0.4 µM): 0.847
- relative viability (NCI-H520; first compound 1.265 µM): 0.604
- relative viability (NCI-H1734; first compound 0.04 µM): 1.07
- relative viability (NCI-H1734; first compound 0.1265 µM): 1.1
- relative viability (NCI-H1734; first compound 0.4 µM): 0.955
- relative viability (NCI-H1734; first compound 1.265 µM): 0.984
- relative viability (H3255; first compound 0.04 µM): 0.24
- relative viability (H3255; first compound 0.1265 µM): 0.231
- relative viability (H3255; first compound 0.4 µM): 0.26
- relative viability (H3255; first compound 1.265 µM): 0.275
- relative viability (PC-14; first compound 0.04 µM): 0.304
- relative viability (PC-14; first compound 0.1265 µM): 0.391
- relative viability (PC-14; first compound 0.4 µM): 0.339
- relative viability (PC-14; first compound 1.265 µM): 0.302
- relative viability (NCI-H1650; first compound 0.04 µM): 0.731
- relative viability (NCI-H1650; first compound 0.1265 µM): 0.758
- relative viability (NCI-H1650; first compound 0.4 µM): 0.725
- relative viability (NCI-H1650; first compound 1.265 µM): 0.529
- relative viability (EKVX; first compound 0.04 µM): 0.218
- relative viability (EKVX; first compound 0.1265 µM): 0.216
- relative viability (EKVX; first compound 0.4 µM): 0.212
- relative viability (EKVX; first compound 1.265 µM): 0.187
- relative viability (RERF-LC-KJ; first compound 0.04 µM): 0.8
- relative viability (RERF-LC-KJ; first compound 0.1265 µM): 0.848
- relative viability (RERF-LC-KJ; first compound 0.4 µM): 0.832
- relative viability (RERF-LC-KJ; first compound 1.265 µM): 0.825
- relative viability (LK-2; first compound 0.04 µM): 0.968
- relative viability (LK-2; first compound 0.1265 µM): 0.902
- relative viability (LK-2; first compound 0.4 µM): 0.744
- relative viability (LK-2; first compound 1.265 µM): 0.934
- relative viability (SW 1573; first compound 0.04 µM): 1.15
- relative viability (SW 1573; first compound 0.1265 µM): 1.39
- relative viability (SW 1573; first compound 0.4 µM): 1.14
- relative viability (SW 1573; first compound 1.265 µM): 1.09
- relative viability (NCI-H1437; first compound 0.04 µM): 0.794
- relative viability (NCI-H1437; first compound 0.1265 µM): 0.823
- relative viability (NCI-H1437; first compound 0.4 µM): 0.765
- relative viability (NCI-H1437; first compound 1.265 µM): 0.338
- relative viability (NCI-H2228; first compound 0.04 µM): 1.17
- relative viability (NCI-H2228; first compound 0.1265 µM): 1.41
- relative viability (NCI-H2228; first compound 0.4 µM): 1.2
- relative viability (NCI-H2228; first compound 1.265 µM): 0.362
- relative viability (NCI-H2405; first compound 0.04 µM): 1.08
- relative viability (NCI-H2405; first compound 0.1265 µM): 1.34
- relative viability (NCI-H2405; first compound 0.4 µM): 0.868
- relative viability (NCI-H2405; first compound 1.265 µM): 0.867
- relative viability (PC-3 [JPC-3]; first compound 0.04 µM): 0.51
- relative viability (PC-3 [JPC-3]; first compound 0.1265 µM): 0.489
- relative viability (PC-3 [JPC-3]; first compound 0.4 µM): 0.466
- relative viability (PC-3 [JPC-3]; first compound 1.265 µM): 0.459
- relative viability (HCC-15; first compound 0.04 µM): 0.882
- relative viability (HCC-15; first compound 0.1265 µM): 0.987
- relative viability (HCC-15; first compound 0.4 µM): 0.838
- relative viability (HCC-15; first compound 1.265 µM): 0.551
- relative viability (NCI-H322M; first compound 0.04 µM): 0.589
- relative viability (NCI-H322M; first compound 0.1265 µM): 0.618
- relative viability (NCI-H322M; first compound 0.4 µM): 0.727
- relative viability (NCI-H322M; first compound 1.265 µM): 0.55
- relative viability (HCC-827; first compound 0.04 µM): 0.209
- relative viability (HCC-827; first compound 0.1265 µM): 0.196
- relative viability (HCC-827; first compound 0.4 µM): 0.189
- relative viability (HCC-827; first compound 1.265 µM): 0.195
- relative viability (NCI-H661; first compound 0.04 µM): 0.455
- relative viability (NCI-H661; first compound 0.1265 µM): 0.633
- relative viability (NCI-H661; first compound 0.4 µM): 0.515
- relative viability (NCI-H661; first compound 1.265 µM): 0.458
- relative viability (CAL-12T; first compound 0.04 µM): 0.788
- relative viability (CAL-12T; first compound 0.1265 µM): 0.908
- relative viability (CAL-12T; first compound 0.4 µM): 0.705
- relative viability (CAL-12T; first compound 1.265 µM): 0.423
- relative viability (COR-L23; first compound 0.04 µM): 0.89
- relative viability (COR-L23; first compound 0.1265 µM): 1.09
- relative viability (COR-L23; first compound 0.4 µM): 1.01
- relative viability (COR-L23; first compound 1.265 µM): 0.654
- relative viability (NCI-H1355; first compound 0.04 µM): 1.02
- relative viability (NCI-H1355; first compound 0.1265 µM): 1.09
- relative viability (NCI-H1355; first compound 0.4 µM): 0.963
- relative viability (NCI-H1355; first compound 1.265 µM): 0.829

From the supplement of paper PMC10307832
